What follows are compounds tested against Mcl-1 (Homo sapiens, UniProt Q07820) (assay: FP based binding assay to Mcl-1 (Bid BH3 peptide probe)). Details: not given.
Mcl-1, sequence (Q07820 whole entry): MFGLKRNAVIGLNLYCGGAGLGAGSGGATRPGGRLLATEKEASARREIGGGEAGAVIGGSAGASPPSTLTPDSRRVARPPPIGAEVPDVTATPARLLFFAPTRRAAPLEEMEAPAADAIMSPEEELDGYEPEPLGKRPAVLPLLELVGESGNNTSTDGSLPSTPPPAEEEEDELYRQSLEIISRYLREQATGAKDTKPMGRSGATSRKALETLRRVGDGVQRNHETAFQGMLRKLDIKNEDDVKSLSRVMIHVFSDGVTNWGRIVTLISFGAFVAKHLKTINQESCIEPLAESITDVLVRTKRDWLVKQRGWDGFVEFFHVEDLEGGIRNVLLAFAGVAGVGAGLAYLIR

Q: Which “Mcl-1 binding, in words” value does the source give for `O=C(O)c1ccccc1NS(=O)(=O)N1CCN(c2ccccc2)CC1` [Compound 460, 2-(1-phenylpiperazine-4-sulfonamido)benzoic acid] here?
A: deleterious

Same assay, conditions: Binding affinity of Mcl-1 inhibitors using FP based assay, Table 1

Q: For `O=C(O)c1cc(SCCc2ccccc2)ccc1NS(=O)(=O)c1ccccc1Br` [Compound 386, 2-(2-bromophenylsulfonamido)-5-(phenethylthio)benzoic acid], which Ki is on record?
A: 0.381 ± 0.066 µM

Q: For `CC(C)(C)c1ccc(N2CCN(C(=O)CCc3cccc(-c4ccc(C(=O)O)c(NS(=O)(=O)N5CCN(c6ccc(C(C)(C)C)cc6)CC5)c4)c3)CC2)cc1` [Compound 484], which Ki is on record?
A: 0.042 ± 0.017 µM

Q: With `O=C(O)c1cc(-c2ccccc2COc2cccc(C(F)(F)F)c2)ccc1NS(=O)(=O)c1ccc2ccccc2c1` [Compound 468, 4-(naphthalene-2-sulfonamido)-2′-((3-(trifluoromethyl)phenoxy)methyl)-[1,1′-biphenyl]-3-carboxylic acid] as the compound, how does the Ki read?
A: 0.05 ± 0.011 µM

Q: Which Ki does the source give for `O=C(O)c1ccccc1NS(=O)(=O)c1ccc2ccccc2c1` [Compound 453, 2-(naphthalene-2-sulfonamido)benzoic acid] here?
A: > 2 µM

Q: For `O=C(O)c1ccccc1NS(=O)(=O)c1ccccc1` [Compound 455, 2-(phenylsulfonamido)benzoic acid], which Ki is on record?
A: > 2 µM

Q: How did the Ki turn out when `CCCc1ccc(-c2ccc(NS(=O)(=O)c3ccc4ccccc4c3)c(C(=O)O)c2)cc1` [Compound 466, 4-(naphthalene-2-sulfonamido)-4′-propyl-[1,1′-biphenyl]-3-carboxylic acid] was run?
A: 0.094 ± 0.017 µM

Q: For `O=C(O)c1cc(SCCc2ccccc2)ccc1NS(=O)(=O)CCc1ccccc1` [Compound 443, 5-(phenethylthio)-2-(2-phenylethylsulfonamido)benzoic acid], which Ki is on record?
A: 0.343 ± 0.033 µM

Q: Which Ki does the source give for `O=C(O)c1cc(SCCc2ccccc2)ccc1NS(=O)(=O)c1ccc(-c2ccccc2)cc1` [Compound 378, 2-([1,1′-biphenyl]-4-ylsulfonamido)-5-(phenethylthio)benzoic acid] here?
A: 0.048 ± 0.012 µM

Q: With `O=C(O)c1cc(SCc2ccccc2)ccc1NS(=O)(=O)c1ccccc1` [Compound 392, 5-(Benzylthio)-2-(phenylsulfonamido)benzoic acid] as the compound, how does the Ki read?
A: 0.993 ± 0.178 µM

Q: How did the Ki turn out when `CC(C)c1cc(NS(=O)(=O)c2ccc3ccccc3c2)c(C(=O)O)cc1-c1ccc(COc2cccc(C(F)(F)F)c2)cc1` [Compound 474, 6-isopropyl-4-(naphthalene-2-sulfonamido)-4′-((3-(trifluoromethyl)phenoxy)methyl)-[1,1′-biphenyl]-3-carboxylic acid] was run?
A: 0.023 ± 0.003 µM

Q: How did the Ki turn out when `Nc1ccc(SCCc2ccccc2)cc1C(=O)O` [Compound 416, 2-Amino-5-(phenethylthio)benzoic acid] was run?
A: 1.45 ± 0.132 µM

Q: Which Ki does the source give for `O=C(O)c1ccc(SCCc2ccccc2)cc1NS(=O)(=O)c1ccccc1` [Compound 702, 4-(Phenethylthio)-2-(phenylsulfonamido)benzoic acid] here?
A: 2.36 ± 0.116 µM

Q: Which Ki does the source give for `CC(C)c1cc(NS(=O)(=O)c2ccc(Oc3ccc(F)cc3)cc2)c(C(=O)O)cc1-c1ccc(COc2cccc(C(F)(F)F)c2)cc1` [Compound 480, 4-(4-(4-fluorophenoxy)phenylsulfonamido)-6-isopropyl-4′-((3-(trifluoromethyl)phenoxy)methyl)-[1,1′-biphenyl]-3-carboxylic acid] here?
A: 0.01 ± 0.003 µM

Q: For `CC(C)c1cc(NS(=O)(=O)c2ccc(Oc3ccccc3)cc2)c(C(=O)O)cc1SCCc1ccccc1` [Compound 476, 4-isopropyl-5-(phenethylthio)-2-(4-phenoxyphenylsulfonamido)benzoic acid], which Ki is on record?
A: 0.035 ± 0.013 µM

Q: For `O=C(O)c1cc(-c2ccccc2COc2cccc3ccccc23)ccc1NS(=O)(=O)c1ccc2ccccc2c1` [Compound 473, 2′-((naphthalen-1-yloxy)methyl)-4-(naphthalene-2-sulfonamido)-[1,1′-biphenyl]-3-carboxylic acid], which Ki is on record?
A: 0.031 ± 0.009 µM

Q: For `Cc1cccc(-c2cc(NS(=O)(=O)c3ccccc3)c(C(=O)O)cc2SCCC(=O)Nc2ccccc2)c1` [Compound 485], which Ki is on record?
A: 0.437 ± 0.067 µM

Q: For `O=C(O)c1cc(SCCc2ccccc2)ccc1NS(=O)(=O)N1CCN(c2ccccc2)CC1` [Compound 396, 5-(Phenethylthio)-2-(1-phenylpiperazine-4-sulfonamido)benzoic acid], which Ki is on record?
A: 0.2 ± 0.03 µM

Q: How did the Ki turn out when `O=C(O)c1cc(NCCc2ccccc2)ccc1NS(=O)(=O)c1ccccc1` [Compound 404, 5-(phenethylamino)-2-(phenylsulfonamido)benzoic acid] was run?
A: 5.74 ± 0.749 µM

Q: For `O=C(O)c1cc(SCCc2ccccc2)ccc1NS(=O)(=O)c1ccc(C2CCCCC2)cc1` [Compound 418, 2-(4-cyclohexylphenylsulfonamido)-5-(phenethylthio)benzoic acid], which Ki is on record?
A: 0.031 ± 0.01 µM

Q: Which Ki does the source give for `CC(C)c1cc(NS(=O)(=O)c2ccc(Oc3ccccc3)cc2)c(C(=O)O)cc1-c1ccc(COc2cccc(C(F)(F)F)c2)cc1` [Compound 477, 6-isopropyl-4-(4-phenoxyphenylsulfonamido)-4′-((3-(trifluoromethyl)phenoxy)methyl)-[1,1′-biphenyl]-3-carboxylic acid] here?
A: 0.013 ± 0.003 µM

Q: With `O=C(O)c1cc(SCCc2ccccc2)ccc1NS(=O)(=O)c1ccc(Oc2ccccc2)cc1` [Compound 376, 5-(Phenethylthio)-2-(4-phenoxyphenylsulfonamido)benzoic acid] as the compound, how does the Ki read?
A: 0.044 ± 0.014 µM

Q: `Nc1ccc(-c2ccccc2COc2cccc(C(F)(F)F)c2)cc1C(=O)O` [Compound 467, 4-amino-2′-((3-(trifluoromethyl)phenoxy)methyl)-[1,1′-biphenyl]-3-carboxylic acid] was tested. Which Ki did it give?
A: 1.16 ± 0.196 µM

Q: For `CC(C)(C)c1ccc(N2CCN(S(=O)(=O)Nc3ccc(SCCC(=O)Nc4ccccc4)cc3C(=O)O)CC2)cc1` [Compound 435], which Ki is on record?
A: 0.245 ± 0.048 µM

Q: For `O=C(O)c1cc(-c2ccc(COc3cccc(C(F)(F)F)c3)cc2)ccc1NS(=O)(=O)c1ccc2ccccc2c1` [Compound 471, 4-(naphthalene-2-sulfonamido)-4′-((3-(trifluoromethyl)phenoxy)methyl)-[1,1′-biphenyl]-3-carboxylic acid], which Ki is on record?
A: 0.036 ± 0.006 µM

Q: For `O=C(CSc1ccc(NS(=O)(=O)c2ccccc2)c(C(=O)O)c1)Nc1ccccc1` [Compound 395], which Ki is on record?
A: > 2 µM

Q: Which Ki does the source give for `O=C(CCSc1ccc(NS(=O)(=O)N2CCN(c3ccccc3)CC2)c(C(=O)O)c1)Nc1ccccc1` [Compound 429] here?
A: 2.24 ± 0.431 µM

Q: `Cc1cccc(-c2cc(NS(=O)(=O)N3CCN(c4ccc(C(C)(C)C)cc4)CC3)c(C(=O)O)cc2SCCC(=O)Nc2ccccc2)c1` [Compound 479] was tested. Which Ki did it give?
A: 0.066 ± 0.027 µM

Q: Which Ki does the source give for `O=C(O)c1cc(SCCc2ccccc2)ccc1NS(=O)(=O)Cc1ccc(Cl)cc1` [Compound 398] here?
A: 0.241 ± 0.089 µM

Q: How did the Ki turn out when `O=C(Nc1ccc(SCCc2ccccc2)cc1C(=O)O)c1ccccc1` [Compound 364, 2-Benzamido-5-(phenethylthio)benzoic acid] was run?
A: 0.891 ± 0.185 µM

Q: With `O=C(CCc1ccccc1)Nc1ccc(SCCc2ccccc2)cc1C(=O)O` [Compound 454, 5-(phenethylthio)-2-(3-phenylpropanamido)benzoic acid] as the compound, how does the Ki read?
A: 0.874 ± 0.246 µM

Q: Which Ki does the source give for `CC(C)c1cc(NS(=O)(=O)c2ccc3ccccc3c2)c(C(=O)O)cc1SCCc1ccccc1` [Compound 478, 4-isopropyl-2-(naphthalene-2-sulfonamido)-5-(phenethylthio)benzoic acid] here?
A: 0.07 ± 0.021 µM

Q: With `COC(=O)c1cc(-c2ccc(COc3cccc(C(F)(F)F)c3)cc2)c(C(C)C)cc1NC(=O)c1ccc(Oc2ccccc2)cc1` [Compound 486, methyl 6-isopropyl-4-(4-phenoxybenzamido)-4′-((3-(trifluoromethyl)phenoxy)methyl)-[1,1′-biphenyl]-3-carboxylate] as the compound, how does the Ki read?
A: > 2 µM

Q: For `O=C(O)c1cc(SCc2ccccc2)ccc1NS(=O)(=O)N1CCN(c2ccccc2)CC1` [Compound 456, 5-(benzylthio)-2-(1-phenylpiperazine-4-sulfonamido)benzoic acid], which Ki is on record?
A: 0.387 ± 0.138 µM

Q: Which Ki does the source give for `O=C(CCSc1ccc(NS(=O)(=O)c2ccccc2)c(C(=O)O)c1)Nc1ccccc1` [Compound 410] here?
A: 0.233 ± 0.021 µM

Q: With `COC(=O)c1cc(-c2ccc(COc3cccc(C(F)(F)F)c3)cc2)c(C(C)C)cc1NS(=O)(=O)c1ccc2ccccc2c1` [Compound 482, methyl 6-isopropyl-4-(naphthalene-2-sulfonamido)-4′-((3-(trifluoromethyl)phenoxy)methyl)-[1,1′-biphenyl]-3-carboxylate] as the compound, how does the Ki read?
A: > 2 µM

Q: Which Ki does the source give for `O=C(O)c1ccccc1NS(=O)(=O)N1CCN(c2ccccc2)CC1` [Compound 460, 2-(1-phenylpiperazine-4-sulfonamido)benzoic acid] here?
A: > 2 µM

Q: `COC(=O)c1cc(-c2ccc(COc3cccc(C(F)(F)F)c3)cc2)c(C(C)C)cc1NS(=O)(=O)c1ccc(Oc2ccc(F)cc2)cc1` [Compound 481, methyl 4-(4-(4-fluorophenoxy)phenylsulfonamido)-6-isopropyl-4′-((3-(trifluoromethyl)phenoxy)methyl)-[1,1′-biphenyl]-3-carboxylate] was tested. Which Ki did it give?
A: > 2 µM

Q: For `O=C(O)c1cc(SCCc2ccccc2)ccc1NS(=O)(=O)c1ccccc1-c1ccccc1` [Compound 458, 2-([1,1′-biphenyl]-2-ylsulfonamido)-5-(phenethylthio)benzoic acid], which Ki is on record?
A: 0.079 ± 0.025 µM

Q: How did the Ki turn out when `O=C(O)c1cc(SCCc2ccccc2)ccc1NS(=O)(=O)N1CCN(Cc2ccccc2)CC1` [Compound 414, 2-(1-benzylpiperazine-4-sulfonamido)-5-(phenethylthio)benzoic acid] was run?
A: 0.275 ± 0.021 µM

Q: With `Nc1ccc(-c2ccc(COc3cccc(C(F)(F)F)c3)cc2)cc1C(=O)O` [Compound 469, 4-amino-4′-((3-(trifluoromethyl)phenoxy)methyl)-[1,1′-biphenyl]-3-carboxylic acid] as the compound, how does the Ki read?
A: 2.36 ± 0.08 µM

Same assay, conditions: R1 optimisation starting from 368

Q: How did the “improvement of binding potency” value turn out when `O=C(O)c1cc(SCCc2ccccc2)ccc1NS(=O)(=O)c1ccc(-c2ccc(Cl)cc2)cc1` [Compound 380, 2-(4′-chloro-[1,1′-biphenyl]-4-ylsulfonamido)-5-(phenethylthio)benzoic acid] was run?
A: 16 fold

Same assay, conditions: binding affinity to Mcl-1

Q: Which Ki does the source give for `O=C(O)c1cc(SCCc2ccccc2)ccc1NS(=O)(=O)c1ccc(-c2ccc(Cl)cc2)cc1` [Compound 380, 2-(4′-chloro-[1,1′-biphenyl]-4-ylsulfonamido)-5-(phenethylthio)benzoic acid] here?
A: 0.031 µM

Q: With `O=C(O)c1cc(-c2ccc(COc3cccc4ccccc34)cc2)ccc1NS(=O)(=O)c1ccc2ccccc2c1` [Compound 475, 4′-((naphthalen-1-yloxy)methyl)-4-(naphthalene-2-sulfonamido)-[1,1′-biphenyl]-3-carboxylic acid] as the compound, how does the Ki read?
A: 0.027 ± 0.005 µM

Same assay, conditions: relative to 382

Q: With `O=C(O)c1cc(-c2ccc(COc3cccc4ccccc34)cc2)ccc1NS(=O)(=O)c1ccc2ccccc2c1` [Compound 475, 4′-((naphthalen-1-yloxy)methyl)-4-(naphthalene-2-sulfonamido)-[1,1′-biphenyl]-3-carboxylic acid] as the compound, how does the “improvement in comparison with 382” value read?
A: 6 fold

Q: For `CC(C)c1cc(NS(=O)(=O)c2ccc3ccccc3c2)c(C(=O)O)cc1SCCc1ccccc1` [Compound 478, 4-isopropyl-2-(naphthalene-2-sulfonamido)-5-(phenethylthio)benzoic acid], which “improvement in comparison with 382” value is on record?
A: 2.5 fold
